Source: PubChem BioAssay AID2060512 (Molecular Pharmacology Branch, DTP, NCI, 2025)
Several values for one entry are separate records, joined by “and”; a condition that tells them apart may be missing. Identical values can stand only once.

System: 186277-243-T-J2-PDC complex spheroid viability
Assay: Anticancer human tumor 186277-243-T-J2-PDC patient-derived colon adenocarcinoma cell line growth inhibition [GQUAD]
Conditions: for viability, T/C: stronger effect = lower value
Text: DNA G-quadruplex Stabilizer Agents in Combinations in Complex Spheroids
A high-throughput screen of multi-cell type tumor spheroids was designed to identify active combinations of DNA G-quadruplex stabilizer agents and targeted small molecules. Complex spheroids include a stromal component modeled by human endothelial cells (HUVEC) and fibroblasts modeled by human mesenchymal stem cells (MSCs). The concentration ranges selected for each drug and investigational agent were based upon clinically achievable concentrations if the clinical Cmax of the agent was known.
Compounds. The drugs and investigational agents: pidnarulex (CX-5461; NSC782164), APTO-253 (NSC789042), BRACO-19 (NSC847499), peposertib (NSC802822), ceralasertib (NSC780249), elimusertib (NSC800525), camonsertib (NSC841442), AZD-1390 (NSC803789), olaparib (NSC753686), talazoparib (NSC767125), ART-558 (NSC835418), sotorasib (NSC818433), MRTX-1133 (NSC836407), SN-38 (NSC673596), topotecan (NSC609699), etoposide (NSC141540), doxorubicin (NSC123127), gemcitabine (NSC613327), 5-fluorouracil (NSC19893), paclitaxel (NSC125973), vemurafenib (NSC761431), panobinostat (NSC761190), R-306465 (JNJ-16241199; NSC773264), adavosertib (NSC754352), TP-3654 (NSC805149), carboplatin (NSC241240), KSQ-4279 (NSC840948), and staurosporine (NSC755774) were obtained from the National Cancer Institute (NCI) Developmental Therapeutics Program Chemical Repository (34). The FDA-approved anticancer drug set is available from the NCI Developmental Therapeutics Program. […] The stock solutions were prepared in dimethyl sulfoxide (DMSO, Sigma-Aldrich, St. Louis, MO, cat. D2650) at 800-fold the tested concentration and stored at -70 degrees C prior to their use. All drugs and investigational agents were tested over a range starting from a high concentration at or near the clinical Cmax and decreasing in half-log increments. If the clinical Cmax for an agent had not been determined, the highest concentration tested was 10 microM.
2.3 Cell Culture. All cells were maintained in an incubator at 37 degrees C and 5% CO2 with 95% humidity. The PDC lines were cultured according to standard operating procedures established by the NCI PDMR. All PDCs were thawed and cultured in Matrigel-coated flasks prepared with a working solution of 1X Ham's F-12 nutrient mix, without supplementation (Invitrogen, cat. 11765054), 100 U/mL penicillin-streptomycin (Invitrogen, cat. 15140122), and 2.5% Matrigel (Corning Inc., cat. 354248) for the first three passages. The 857933-349-R-J2-PDC line was cultured in 6C/Colon 1B media, which includes advanced DMEM/F-12 (Thermo Fisher Scientific, cat. 12634028), 10 mM HEPES (Thermo Fisher Scientific, cat. 15630080), 1X GlutaMAX supplement (Thermo Fisher Scientific, cat. 35050061), 0.1 mg/mL primocin (InvivoGen, cat. ant-pm-2), 10% defined fetal bovine serum, heat inactivated (HyClone Laboratories Inc., cat. SH30070.03HI), 50% L-WRN conditioned media (ATCC, cat. CRL-3276), 1.25 mM N-Acetyl-L-cysteine (Sigma-Aldrich, cat. A9165), 10 mM nicotinamide (Sigma-Aldrich, cat. N0636), 1X B-27 supplement (Thermo Fisher Scientific, cat. 17504044), 1X N-2 supplement (Thermo Fisher Scientific, cat. 17502048), 10 microM Y-27632 dihydrochloride (Tocris Bioscience, cat. 1254), and 50 ng/mL human EGF recombinant protein (Thermo Fisher Scientific, cat. PHG0311). The 485176-168-R4-J1-PDC line was cultured in Panc media, which includes all 6C/Colon 1B media components plus 100 ng/mL human FGF-10 (Thermo Fisher Scientific, cat. 100-26), 500 nM SB-431542 (Selleckchem, cat. S1067), and gastrin (Tocris, cat. 3006).
[…]

[1] = curve of first compound, second compound 0.0316 µM
[2] = curve of first compound, second compound 0.1 µM
[3] = curve of first compound, second compound 0.316 µM
[4] = curve of first compound, second compound 1 µM
[5] = curve of first compound, second compound 3.16 µM
[6] = curve of first compound, second compound 10 µM
[7] = second compound 0.0316 µM, first compound 0.0316 µM
[8] = second compound 0.0316 µM, first compound 0.1 µM
[9] = second compound 0.0316 µM, first compound 0.316 µM
[10] = second compound 0.0316 µM, first compound 1 µM
[11] = second compound 0.0316 µM, first compound 3.16 µM
[12] = second compound 0.0316 µM, first compound 10 µM
[13] = second compound 0.1 µM, first compound 0.0316 µM
[14] = second compound 0.1 µM, first compound 0.1 µM
[15] = second compound 0.1 µM, first compound 0.316 µM
[16] = second compound 0.1 µM, first compound 1 µM
[17] = second compound 0.1 µM, first compound 3.16 µM
[18] = second compound 0.1 µM, first compound 10 µM
[19] = second compound 0.316 µM, first compound 0.0316 µM
[20] = second compound 0.316 µM, first compound 0.1 µM
[21] = second compound 0.316 µM, first compound 0.316 µM
[22] = second compound 0.316 µM, first compound 1 µM
[23] = second compound 0.316 µM, first compound 3.16 µM
[24] = second compound 0.316 µM, first compound 10 µM
[25] = second compound 1 µM, first compound 0.0316 µM
[26] = second compound 1 µM, first compound 0.1 µM
[27] = second compound 1 µM, first compound 0.316 µM
[28] = second compound 1 µM, first compound 1 µM
[29] = second compound 1 µM, first compound 3.16 µM
[30] = second compound 1 µM, first compound 10 µM
[31] = second compound 3.16 µM, first compound 0.0316 µM
[32] = second compound 3.16 µM, first compound 0.1 µM
[33] = second compound 3.16 µM, first compound 0.316 µM
[34] = second compound 3.16 µM, first compound 1 µM
[35] = second compound 3.16 µM, first compound 3.16 µM
[36] = second compound 3.16 µM, first compound 10 µM
[37] = second compound 10 µM, first compound 0.0316 µM
[38] = second compound 10 µM, first compound 0.1 µM
[39] = second compound 10 µM, first compound 0.316 µM
[40] = second compound 10 µM, first compound 1 µM
[41] = second compound 10 µM, first compound 3.16 µM
[42] = second compound 10 µM, first compound 10 µM
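Further: spheroids exposed to drugs for 7 days.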
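Wherever viability, T/C is given: 100% = DMSO vehicle control viability.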

With `Nc1ccn(C2OC(CO)C(O)C2(F)F)c(=O)n1` (stereo not given) the viability, T/C (compound 0.0316 µM) was 17% and 8.09% and 31%, the viability, T/C (compound 0.1 µM) was 11.1% and 8.48% and 13.3% and the viability, T/C (compound 0.316 µM) was 11.3% and 9.27% and 10.2%. The viability, T/C (compound 1 µM) was 11.5% and 8.56% and 11.1%, the viability, T/C (compound 3.16 µM) was 12.8% and 8.21% and 8.72% and the viability, T/C (compound 10 µM) was 10.8% and 8.32% and 10.6%. The IC50 (curve of compound) was < 31.6 nM.
In the case of `C#Cc1c(F)ccc2cc(O)cc(-c3ncc4c(N5CC6CCC(C5)N6)nc(OCC56CCCN5CC(F)C6)nc4c3F)c12` (stereo not given) + Cc1[nH]c2ccc(F)cc2c1-c1nc2c3cccnc3c3ncccc3c2[nH]1, the IC50 [1] is reported as 74.3 nM, the IC50 [2] is reported as 85.4 nM and the IC50 [3] is reported as 64.1 nM. For the same compound, the IC50 [4] was 61.3 nM, the IC50 [5] was 51.7 nM and the IC50 [6] was < 31.6 nM. It also gave a viability, T/C [7] of 94.1%, a viability, T/C [8] of 34.5% and a viability, T/C [9] of 14.3%. It also gave a viability, T/C [10] of 7.64%, a viability, T/C [11] of 7.24% and a viability, T/C [12] of 5.55%. It also gave a viability, T/C [13] of 106%, a viability, T/C [14] of 41.1% and a viability, T/C [15] of 14.2%. It also gave a viability, T/C [16] of 8.6%, a viability, T/C [17] of 7.78% and a viability, T/C [18] of 5.66%. The viability, T/C [19] was 78.1%, the viability, T/C [20] was 30.7% and the viability, T/C [21] was 18.1%. The viability, T/C [22] was 7.67%, the viability, T/C [23] was 7.43% and the viability, T/C [24] was 3.69%. For the same compound, the viability, T/C [25] was 68.6%, the viability, T/C [26] was 36% and the viability, T/C [27] was 17.7%. For the same compound, the viability, T/C [28] was 7.93%, the viability, T/C [29] was 6.21% and the viability, T/C [30] was 5.18%. For the same compound, the viability, T/C [31] was 56%, the viability, T/C [32] was 42.3% and the viability, T/C [33] was 19.2%. The viability, T/C [34] was 10.7%, the viability, T/C [35] was 5.86% and the viability, T/C [36] was 3.99%. It also gave a viability, T/C [37] of 47.4%, a viability, T/C [38] of 38.2% and a viability, T/C [39] of 16.8%. It also gave a viability, T/C [40] of 7.64%, a viability, T/C [41] of 7.32% and a viability, T/C [42] of 2.6%.
For `Cc1[nH]c2ccccc2c1CCNCc1ccc(/C=C/C(=O)NO)cc1`, the viability, T/C (compound 0.000999 µM) was 107% and 92.7% and 99%, the viability, T/C (compound 0.00316 µM) was 89.4% and 96.9% and 90% and the viability, T/C (compound 0.00999 µM) was 92.2% and 94.9% and 101%. The viability, T/C (compound 0.0316 µM) was 60% and 92.1% and 97.2%, the viability, T/C (compound 0.0999 µM) was 18.4% and 8.39% and 19.1% and the viability, T/C (compound 0.316 µM) was 0.49% and 2.16% and 2.64%. For the same compound, the IC50 (curve of compound) was 41.9 nM and 56.4 nM and 63.2 nM.
`CC1COCCN1c1cc(C2(S(C)(=N)=O)CC2)nc(-c2ccnc3[nH]ccc23)n1` (stereo not given) + CN(C)c1ccc(Nc2c3ccc(NC(=O)CCN4CCCC4)cc3nc3cc(NC(=O)CCN4CCCC4)ccc23)cc1 was tested, and the IC50 [1] was 803 nM, the IC50 [2] was 749 nM and the IC50 [3] was 1350 nM. The IC50 [4] was 972 nM, the IC50 [5] was 986 nM and the IC50 [6] was 840 nM. The viability, T/C [7] was 95.5%, the viability, T/C [8] was 100% and the viability, T/C [9] was 117%. The viability, T/C [10] was 37.2%, the viability, T/C [11] was 8.85% and the viability, T/C [12] was 6.06%. It also gave a viability, T/C [13] of 105%, a viability, T/C [14] of 102% and a viability, T/C [15] of 89.4%. The viability, T/C [16] was 37%, the viability, T/C [17] was 7.6% and the viability, T/C [18] was 5.85%. The viability, T/C [19] was 85.2%, the viability, T/C [20] was 99.5% and the viability, T/C [21] was 92.7%. For the same compound, the viability, T/C [22] was 65.2%, the viability, T/C [23] was 7.48% and the viability, T/C [24] was 5.05%. It also gave a viability, T/C [25] of 91%, a viability, T/C [26] of 89.8% and a viability, T/C [27] of 96.2%. For the same compound, the viability, T/C [28] was 48.9%, the viability, T/C [29] was 8.32% and the viability, T/C [30] was 5.51%. For the same compound, the viability, T/C [31] was 91%, the viability, T/C [32] was 103% and the viability, T/C [33] was 98.8%. For the same compound, the viability, T/C [34] was 49.4%, the viability, T/C [35] was 7.66% and the viability, T/C [36] was 5.17%. For the same compound, the viability, T/C [37] was 85.3%, the viability, T/C [38] was 94% and the viability, T/C [39] was 110%. The viability, T/C [40] was 41.7%, the viability, T/C [41] was 9.87% and the viability, T/C [42] was 5.6%.
For `COc1ccc([C@@H](O)c2cc(-c3ncnc4cc(N5CCOCC5)ccc34)c(F)cc2Cl)nn1`, the viability, T/C (compound 0.0316 µM) was 97.6% and 103% (2×), the viability, T/C (compound 0.1 µM) was 84.1% and 107% and 101% and the viability, T/C (compound 0.316 µM) was 115% and 112% and 97.2%. The viability, T/C (compound 1 µM) was 95.7% and 90.8% and 108%, the viability, T/C (compound 3.16 µM) was 63% and 66.2% and 70% and the viability, T/C (compound 10 µM) was 41.8% and 24.9% and 33.5%. The IC50 (curve of compound) was 6400 nM and 4880 nM and 5940 nM.
